Test [1] deals with T1, triton-extracted alpha-synuclein from PD Tissue (Homo sapiens, UniProt P37840).
T1 construct: tissue Analytic Biological Services Inc; host or cells: human PD temporal cortex grey matter, Triton X-100 insoluble pellet
Description: Alpha-synuclein tissue homogenate binding assay (Assay 1), displacement of [^3H]-1000. The following applies: for Selectivity ratio (Assay 2/Assay 1): Aβ Tissue Ki / α-synuclein Tissue Ki; for pKi: read-out: α-synuclein Tissue Ki (Assay 1). As to the method:
Frozen human brain tissues from PD patients were purchased from Analytic Biological Services Inc. The samples were post-mortem tissues from donors with clinical diagnosis of late stage of PD. Alpha-synuclein, tau and amyloid burden was determined through a combination of immunohistochemistry on frozen thin coronal sections, as well as alpha Lisa-based quantification of protein levels in a detergent insoluble protein fraction. A tissue sample of temporal cortex was identified from one donor as having moderate to high alpha-synuclein burden, low amyloid and minimal to no tau pathology. The detergent insoluble fraction of temporal cortex from this patient was used to support homogenate binding studies. Grey matter was dissected out of the temporal cortex tissue with a dissecting blade and minced with fine dissecting scissors. […] Homogenates were centrifuged at 100,000×g for 45 minutes. The pellet was resuspended in TBS-TX buffer, using a Polytron at highest setting for 30 seconds at 4° C. Homogenates were centrifuged at 100,000×g for 45 minutes and the pellet was resuspended in TBS-TX buffer. A BCA protein assay was performed on the final homogenate to determine the protein concentration. […] For displacement a-synuclein binding assay, compounds and control were solvated in dimethyl sulfoxide (DMSO) and transferred using focused acoustic energy by an Echo 655 liquid handling instrument (Beckman Coulter, Indianapolis, IN) into designated wells of uniquely bar coded 96-well v-bottom low binding polypropylene microplates (Thermo Scientific, 249946). Compound dose response curves were prepared in a 10-point, 3-fold fashion within columns 2-11 of the microplate from high to low compound concentrations. […] Liquid-handling steps for dispensing insoluble fractions of PD brain homogenates and radioligand were performed using a Bravo automated liquid handling platform equipped with a 96LT disposable tip head (Agilent Technologies, Santa Clara. CA). […] The incubation was terminated by rapid filtration through UniFilter-96 GF/C microplates (pre-treated for 30 minutes with 0.2% Polyethylenimine at 4° C.) by using a FilterMate Harvester (PerkinElmer). […] The bottom of each UniFilter-96 GF/C microplate was adhesively sealed (PerkinElmer 6005199) prior to the addition of 50 μL MicroScint-20 liquid scintillation cocktail (PerkinElmer 6013621) to each well. A clear adhesive seal (TopSeal-A PLUS, PerkinElmer 6050185) was then applied to the top of each microplate and counted 1 minute/well on MicroBeta^2 system (PerkinElmer.

For test [2], the target named is aggregated beta amyloid in AD tissue (Homo sapiens, UniProt P05067). Description: Competitive radioligand binding to pathological aggregated beta amyloid in AD tissue (Assay 2), displacement of [^3H]-105. The following applies: Aβ-rich AD frontal cortex homogenate, [^3H]-105, Kd 11.0 nM.
The mark [3] stands for this setting: insoluble fraction of PD brain homogenate, [^3H]-1000 3.0 nM, Kd 0.90 nM.

From patent US20260224758A1, “ALPHA-SYNUCLEIN BINDERS AND METHODS OF USE” (Merck Sharp & Dohme LLC, priority 2023, published 2026) come the findings set out here.

pKi: −log10 of the molar value. Where two headings read alike, the source gives them in different places.

Broadly, the pKi is −log10 of the Ki, conventionally taken in molar units.

Chain of aggregated beta amyloid in AD tissue (P05067 672-711 limits assumed): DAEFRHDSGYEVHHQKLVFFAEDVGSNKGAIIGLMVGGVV

`OCC(F)COC[C@H]1CN(c2ncc(C#Cc3ccc(-n4ccnc4)nc3)cn2)CCN1c1ncccn1` (stereo partly drawn) [Example 63, 3-(((R)-4-(5-((6-(1H-imidazol-1-yl)pyridin-3-yl)ethynyl)pyrimidin-2-yl)-1-(pyrimidin-2-yl)piperazin-2-yl)methoxy)-2-fluoropropan-1-ol]: the “Selectivity ratio (Assay 2/Assay 1)” value in test [1] was found to be 1314. The figures for the pKi in test [1] (setting [3]) and in test [2] were 9.04 and at most 5.92, respectively.
As for `COC[C@H]1CN(c2cc(F)ccn2)CCN1c1ncc(/C=C/c2ccc(-n3ccnc3)nc2)cn1` [Example 17, (R,E)-5-(2-(6-(1H-imidazol-1-yl)pyridin-3-yl)vinyl)-2-(4-(4-fluoropyridin-2-yl)-2-(methoxymethyl)piperazin-1-yl)pyrimidine], the “Selectivity ratio (Assay 2/Assay 1)” value in test [1] is 13333. The compound also showed a negative logarithm of the Ki (pKi) in test [2] of at most 4.92.
With `COC[C@H]1CN(c2ncc(C#Cc3ccc(N4CC[C@H](F)C4)nc3)cn2)CCN1c1ncccn1` [Example 72, 5-((6-((S)-3-fluoropyrrolidin-1-yl)pyridin-3-yl)ethynyl)-2-((R)-3-(methoxymethyl)-4-(pyrimidin-2-yl)piperazin-1-yl)pyrimidine], the “Selectivity ratio (Assay 2/Assay 1)” value in test [1] was determined as 617. In addition, the pKi was 8.71 in test [1] (setting [3]) and at most 5.92 in test [2].
In the case of `COC[C@H]1CN(c2ccccn2)CCN1c1ncc(/C=C/c2ccc(-n3cnnc3)nc2)cn1` [Example 5, (R,E)-5-(2-(6-(4H-1,2,4-triazol-4-yl)pyridin-3-yl)vinyl)-2-(2-(methoxymethyl)-4-(pyridin-2-yl)piperazin-1-yl)pyrimidine], the “Selectivity ratio (Assay 2/Assay 1)” value in test [1] is on record as 7500. Further, the pKi was 8.80 in test [1] (setting [3]) and at most 4.92 in test [2].
Taken in the same sequence, the figures for `FCCOCCOC[C@H]1CN(c2ncc(/C=C/c3ccc(-c4cnco4)nc3)cn2)CCN1c1ncncn1` [Example 38, (R,E)-5-(5-(2-(2-(3-((2-(2-fluoroethoxy)ethoxy)methyl)-4-(1,3,5-triazin-2-yl)piperazin-1-yl)pyrimidin-5-yl)vinyl)pyridin-2-yl)oxazole] were 600, 8.70 and at most 5.92.
For `Cn1cc(-c2ncc(C#Cc3cnc(N4CCN(c5ncccn5)[C@@H](COCCF)C4)nc3)cn2)cn1` [Example 51, (R)-2-(3-((2-fluoroethoxy)methyl)-4-(pyrimidin-2-yl)piperazin-1-yl)-5-((2-(1-methyl-1H-pyrazol-4-yl)pyrimidin-5-yl)ethynyl)pyrimidine] the same measures were 654, 8.74 and at most 5.92.
Turning to `COC[C@H]1CN(c2ncc(C#Cc3ccc(-n4cnnc4F)nc3)cn2)CCN1c1ncccn1` [Example 59, (R)-5-((6-(3-fluoro-4H-1,2,4-triazol-4-yl)pyridin-3-yl)ethynyl)-2-(3-(methoxymethyl)-4-(pyrimidin-2-yl)piperazin-1-yl)pyrimidine], the “Selectivity ratio (Assay 2/Assay 1)” value in test [1] is given as 237. The negative-log Ki (pKi) in test [1] (setting [3]) is 8.30; in test [2], at most 5.92.
On to `FCCOC[C@H]1CN(c2ncc(/C=C/c3ccc(-c4cnco4)nc3)cn2)CCN1c1ccncn1` [Example 42, (R,E)-5-(5-(2-(2-(3-((2-fluoroethoxy)methyl)-4-(pyrimidin-4-yl)piperazin-1-yl)pyrimidin-5-yl)vinyl)pyridin-2-yl)oxazole], for which, in test [1], the “Selectivity ratio (Assay 2/Assay 1)” value amounted to 1538. The values for the pKi in test [1] (setting [3]) and in test [2] were 9.11 and at most 5.92, respectively.
As to `OC[C@H]1CN(c2cc(F)ncn2)CCN1c1ncc(/C=C/c2ccc(-n3ccnc3)nc2)cn1` [Example 15, (R,E)-(1-(5-(2-(6-(1H-imidazol-1-yl)pyridin-3-yl)vinyl)pyrimidin-2-yl)-4-(6-fluoropyrimidin-4-yl)piperazin-2-yl)methanol], the “Selectivity ratio (Assay 2/Assay 1)” value in test [1] was found to be 12000. Further, the pKi in test [1] (setting [3]) is 9.00; in test [2] it was at most 4.92.
Consider `OC[C@H]1CN(c2cnccn2)CCN1c1ncc(/C=C/c2ccc(-n3ccnc3)nc2)cn1` [Example 23, (R,E)-(1-(5-(2-(6-(1H-imidazol-1-yl)pyridin-3-yl)vinyl)pyrimidin-2-yl)-4-(pyrazin-2-yl)piperazin-2-yl)methanol], for which, in test [1], the “Selectivity ratio (Assay 2/Assay 1)” value was 10000 and the pKi is 8.92. Also, in test [2], the pKi is at most 4.92.
On to `COC[C@H]1CN(c2ncc(/C=C/c3ccc(-c4cnn(CCF)c4)nc3)cn2)CCN1c1ncccn1` [Example 37, (R,E)-5-(2-(6-(1-(2-fluoroethyl)-1H-pyrazol-4-yl)pyridin-3-yl)vinyl)-2-(3-(methoxymethyl)-4-(pyrimidin-2-yl)piperazin-1-yl)pyrimidine], for which the “Selectivity ratio (Assay 2/Assay 1)” value in test [1] was found to be 1935. Also, the pKi in test [1] (setting [3]) is 9.21; in test [2] it was at most 5.92.
With `COC[C@H]1CN(c2ncc(/C=C/c3ccc(-n4ccnc4)nc3)cn2)CCN1c1ccnc(F)n1` [Example 34, (R,E)-4-(4-(5-(2-(6-(1H-imidazol-1-yl)pyridin-3-yl)vinyl)pyrimidin-2-yl)-2-(methoxymethyl)piperazin-1-yl)-2-fluoropyrimidine], in test [1], the “Selectivity ratio (Assay 2/Assay 1)” value was determined as 6667. In addition, the results for the pKi in test [1] (setting [3]) and in test [2] were 8.74 and at most 4.92, respectively.
On to `FCCOC[C@H]1CN(c2ncc(C#Cc3ccc(-n4cnnc4)nc3)cn2)CCN1c1ncccn1` [Example 71, (R)-5-((6-(4H-1,2,4-triazol-4-yl)pyridin-3-yl)ethynyl)-2-(3-((2-fluoroethoxy)methyl)-4-(pyrimidin-2-yl)piperazin-1-yl)pyrimidine], for which the “Selectivity ratio (Assay 2/Assay 1)” value in test [1] was 293. Besides, the pKi is 8.39 in test [1] (setting [3]) and at most 5.92 in test [2].
As to `Cn1cc(-c2ncc(C#Cc3cnc(N4CCN(c5ncncn5)[C@@H](COCCF)C4)nc3)cn2)cn1` [Example 44, (R)-2-(2-((2-fluoroethoxy)methyl)-4-(5-((2-(1-methyl-1H-pyrazol-4-yl)pyrimidin-5-yl)ethynyl)pyrimidin-2-yl)piperazin-1-yl)-1,3,5-triazine], the “Selectivity ratio (Assay 2/Assay 1)” value in test [1] is recorded as 2105. Also, the pKi is 9.24 in test [1] (setting [3]) and at most 5.92 in test [2].
Turning to `CNCC1CN(c2cc(F)ncn2)CCN1c1ncc(C#Cc2ccc(-c3cnco3)nc2)cn1` (centres unmarked) [Example 65, 1-(4-(6-fluoropyrimidin-4-yl)-1-(5-((6-(oxazol-5-yl)pyridin-3-yl)ethynyl)pyrimidin-2-yl)piperazin-2-yl)-N-methylmethanamine], in test [1], the “Selectivity ratio (Assay 2/Assay 1)” value turned out to be 1093. Besides, the pKi in test [1] (setting [3]) is 8.96; in test [2], at most 5.92.
Take `COC[C@H]1CN(c2ccc(F)nc2)CCN1c1ncc(/C=C/c2ccc(-n3ccnc3)nc2)cn1` [Example 32, (R,E)-5-(2-(6-(1H-imidazol-1-yl)pyridin-3-yl)vinyl)-2-(4-(6-fluoropyridin-3-yl)-2-(methoxymethyl)piperazin-1-yl)pyrimidine]: in test [1], the “Selectivity ratio (Assay 2/Assay 1)” value worked out at 13333. Moreover, the pKi in test [1] (setting [3]) is 9.05; in test [2], at most 4.92.
Turning to `COC[C@H]1CN(c2ncc(/C=C/c3ccc(-n4ccnc4)nc3)cn2)CCN1c1ncccn1` [Example 2, (R,E)-5-(2-(6-(1H-imidazol-1-yl)pyridin-3-yl)vinyl)-2-(3-(methoxymethyl)-4-(pyrimidin-2-yl)piperazin-1-yl)pyrimidine], the “Selectivity ratio (Assay 2/Assay 1)” value in test [1] was determined as 13333. In addition, the pKi in test [1] (setting [3]) was 9.05; in test [2], at most 4.92.
